Values after ≈ are worked out from the molar mass of the structure shown. Read-outs that look alike come from different tables or passages of the source.
Legend:
Format in all cases: cell-based
[1] = test system: Chlorella pyrenoidosa; test: Growth inhibiting activity against algae in Difco Algae Broth (Chlorella pyrenoidosa); details: Auxenochlorella pyrenoidosa, 672 h
Procedure: (§1) The growth inhibiting activity of the method of the invention against the three algae Chlorella pyrenoidosa, Chlorococcum hypnosporum and Phormidium inundatum was evaluated in Difco Algae Broth, the content of which was as follows:
(§2) Forty-gram portions of the algae medium were added to 250 mL Pyrex Erlenmeyer flasks fitted with loose metal caps and then sterilized. Each of the following substances was then added to the flasks in the order listed:
(§3) 1. Sterile algae medium as required to bring the total weight of the contents of each flask to 50 grams, after allowing for all subsequent additions specified below.
(§4) 2. A solution of one of compounds 1-4 or of a control agent to be evaluated in each test, to give the concentration desired in parts per million by weight.
(§5) 3. Chlorella pyrenoidosa, Chlorococcum hypnosporum and Phormidium inundatum in amounts sufficient to give excellent growth in the controls after 14 days. This was achieved by adding 1 milliliter of a 14 day old culture having luxuriant growth. The Chlorella pyrenoidosa culture was obtained from American Type Culture Collection No. 7516; Chlorococcum hypnosporum, from the University of TX at Austin; and Phormidium inundatum, WI No. 1093, from the University of WA.
(§6) As a control experiment, WSCP was used as a positive control agent. WSCP is a known toxicant which kills C. pyrenoidosa at 2 ppm, C. hypnosporum at 2ppm, and P. inundatum at 10 ppm. Control experiments were also carried out where no toxicants were employed. In the algicidal tests, the growth of algae in the nutrient medium is lush green and can be seen with the naked eye. Because the minimum inhibitory concentrations of the compounds in this example are those which result in complete inhibition, evaluation of the test results is not subjective.
(§7) After the inoculum of the test algae was added, the flasks were incubated at a temperature of 28°±2° C. under fluorescent illumination of 250 foot-candle intensity (8 hours light, 16 hours darkness) for a period adequate for growth in the controls (those portions of medium which contained no toxicant). Observations of growth were made at 7-day intervals. Minimum inhibitory concentrations are those that prevented complete growth after 28 days.

[2] = test system: Enterobacter aerogenes; test: Basal salts method, minimum inhibitory concentration against Enterobacter aerogenes; details: Klebsiella aerogenes, at least 80% kill
Procedure: Compounds 1-4 of Examples 3-6 of the present invention were tested by the basal salts method described in U.S. Pat. No. 2,881,070 at column 5, beginning at line 12 and extending to column 6, line 53. […] The minimum inhibitory concentrations are those in which a percentage kill of at least 80% is obtained.

[3] = test system: Chlorococcum hypnosporum; test: Growth inhibiting activity against algae in Difco Algae Broth (Chlorococcum hypnosporum); details: 672 h
Procedure: as §1, §2, §3, §4, §5, §6, §7

[4] = test system: Phormidium inundatum; test: Growth inhibiting activity against algae in Difco Algae Broth (Phormidium inundatum); details: 672 h
Procedure: as §1, §2, §3, §4, §5, §6, §7

[5] = test system: Aspergillus niger; test: Growth inhibiting activity on the fungus Aspergillus niger; details: Aspergillus niger pH 6.0; completely prevented growth; read-out: Minimum inhibitory concentration against fungi
Procedure: The microorganism growth inhibiting activity of compounds 1-4 on the fungus Aspergillus niger was evaluated. The method is described in U.S. Pat. No. 4,945,109, column 5 beginning at line 47 to column 6, line 33. The disclosure of U.S. Pat. No. 4,945,109 is incorporated herein by reference.

[6] = pH 7, read-out: Minimum inhibitory concentration against algae

Structure (SMILES) | MIC [1, 6] [µg/mL] | MIC ([2]; pH 6.0) [µg/mL] | MIC ([2]; pH 8.0) [µg/mL] | MIC [3, 6] [µg/mL] | MIC [4, 6] [µg/mL] | MIC [5] [µg/mL] | MIC ([1]; C. pyrenoidosa, pH 7, 28 days, read-out: Minimum inhibitory concentration against algae) [µg/mL] | MIC ([3]; C. hypnosporum, pH 7, 28 days, read-out: Minimum inhibitory concentration against algae) [µg/mL] | MIC ([4]; P. inundatum, pH 7, 28 days, read-out: Minimum inhibitory concentration against algae) [µg/mL]
O=C1OC(CCl)CN1Cl (stereo not drawn) [Compound 2, 3-Chloro-5-chloromethyl-2-oxazolidinone] | 1 (≈ 5.88 µM) | 8 | 10 | 1 (≈ 5.88 µM) | 1 (≈ 5.88 µM) | 128 (≈ 753 µM) |  |  | 
O=C1OC(CBr)CN1Br (stereo not drawn) [Compound 3, 3-Bromo-5-bromomethyl-2-oxazolidinone] |  | 2 | 4 |  |  | 100 (≈ 386 µM) | 2 (≈ 7.73 µM) | 8 (≈ 30.9 µM) | 2 (≈ 7.73 µM)
O=C1OC(CBr)CN1Cl (stereo not drawn) [Compound 4, 3-Chloro-5-bromomethyl-2-oxazolidinone] | 4 (≈ 18.7 µM) | 10 | 20 | 8 (≈ 37.3 µM) | 8 (≈ 37.3 µM) | 100 (≈ 466 µM) |  |  | 

Reference: patent US5162354A, “3-halo-5-halomethyl-2-oxazolidinones and their use as microbicides” (Buckman Laboratories International, Inc., priority 1991, dated 1992)
